From US20240352036A1, “CRYSTALLINE FORMS OF RAS INHIBITORS, COMPOSITIONS CONTAINING THE SAME, AND METHODS OF USE THEREOF” (Revolution Medicines, Inc., priority 2023, published 2024)

Experiments:
Format in all cases: physicochemical
[1] = XRPD monitoring over time of pure Form 1 from a saturated diethyl ether slurry
Method: The formation of Form 2 is indicated by the presence of an intense peak at 4.8° 2θ (FIG. 2), which is absent in pure samples of Form 1 (FIG. 1 and FIG. 3). To study the formation of Form 2, a saturated slurry of Compound A was prepared in diethyl ether, which produced pure Form 1 at time=0 hr, and this pure sample was monitored over time using XRPD analysis. A shoulder peak at 4.8° 2θ was detected after approx. 2 hours and increased in intensity compared to the original Form 1 peaks after 4 and 17 days (FIG. 4).

[2] = variable humidity XRPD of crystalline Form 1; settings: 25° C., XRPD at each RH
Method: In another method, crystalline Form 1 was subjected to variable humidity XRPD experiments. In this experiment, two relative humidity (RH) cycles were applied at 25° C. XRPD analysis was carried out in each specific relative humidity. Cycle 1: 40% RH (initial)-40% RH (3 h)-60% RH (3 h)-80% RH (3 h)-95% RH (3 h)-80% RH (3 h)-60% RH (3 h)-40% RH (3 h)-20% RH (3 h) 0% RH (3 h); Cycle 2: 20% RH (3 h)-40% RH (3 h).

[3] = storage under ambient conditions followed by XRPD; settings: two weeks of storage under ambient conditions (room temperature)

SMILES: CCn1c(-c2cccnc2[C@H](C)OC)c2c3cc(ccc31)N1CCO[C@@H](C[C@H](NC(=O)[C@H](C(C)C)N(C)C(=O)C3(F)CCN(C(=O)C#CC(C)(C)N(C)C)CC3)C(=O)N3CCC[C@H](N3)C(=O)OCC(C)(C)C2)C1 (atropisomer, axis not shown) [Form 1]
- time until the Form 2 shoulder peak at 4.8° 2θ was detected ([1]; pure Form 1 at time=0 hr from saturated diethyl ether slurry, peak increased in intensity after 4 and 17 days): approx. 2 hours
- solid form stability over time (XRPD) ([1]; pure Form 1 monitored up to 17 days): may produce a mixture of Forms 1 and 2 over time
- solid form conversion at relative humidity higher than 80% RH ([2]; two RH cycles 0-95% RH, 3 h per step, RH higher than 80%): converted or partially converted to Form 2

SMILES: CCn1c(-c2cccnc2[C@H](C)OC)c2c3cc(ccc31)N1CCO[C@@H](C[C@H](NC(=O)[C@H](C(C)C)N(C)C(=O)C3(F)CCN(C(=O)C#CC(C)(C)N(C)C)CC3)C(=O)N3CCC[C@H](N3)C(=O)OCC(C)(C)C2)C1 (atropisomer, axis not shown) [Form 2]
- solid form conversion at relative humidity lower than 80% ([2]; two RH cycles, RH lower than 80%): converted back to Form 1

SMILES: CCn1c(-c2cccnc2[C@H](C)OC)c2c3cc(ccc31)N1CCO[C@@H](C[C@H](NC(=O)[C@H](C(C)C)N(C)C(=O)C3(F)CCN(C(=O)C#CC(C)(C)N(C)C)CC3)C(=O)N3CCC[C@H](N3)C(=O)OCC(C)(C)C2)C1 (atropisomer, axis not shown) [Form 4]
- solid form stability on storage (XRPD) [3]: converted to a disordered material
